For 21 compounds, EC50 results are on record in patent US9266904B2, “6-bridged heteroaryldihydropyrimidines for the treatment and prophylaxis of hepatitis B virus infection” (priority 2013, dated 2016).

In the first assay the test system is HBV replication in HepG2.2.15 cells. Put plainly: Anti-HBV activity in vitro in HepG2.2.15 cells (extracellular HBV DNA by qPCR). In kind it is cell-based. The following applies: Anti-HBV activity in HepG2.2.15 cells; read-out: EC50. An excerpt: HepG2.2.15 and HepDE19 are stably-transfected cell lines containing the HBV genome. Both cell lines are derived from the hepatoblastoma cell line Hep G2 (American Type Culture Collection, ATCC® HB-8065™) by the published procedures described in references: M A Selles et al. Proc. Natl. Acad. Sci. USA 1987, 84, 1005-1009 and H Guo et al. Journal of Virology 2007, 81, 12472-12484, respectively. Both cell lines were maintained in Dulbecco's modified Eagle's medium (DMEM)-F12 medium supplemented with 10% fetal bovine serum, 100 U/mL penicillin, 100 μg/mL streptomycin, and 0.5 mg/mL of G418.
While HepG2.2.15 cells constitutively support HBV replication and production of virus particles, HepDE19 cells are inducible by tetracycline. Addition of 1 μg/mL tetracycline in culture medium suppresses HBV replication in HepDE19 cells, whereas switching to tetracycline-free medium resumes this process.
HepG2.2.15 cells were seeded into 96-well plates (3×10^4 cells in 100 μL media per well) and incubated overnight at 37° C. The test compounds were serially half-log diluted in DMSO, then diluted 100 times in culture media. 100 μL diluted compounds were added into the plates to reach 0.5% final concentration of DMSO in every well. Five days after compound treatment, culture supernatant was collected for further analysis.
For quantitative PCR detection of extracellular HBV DNA, 100 μL culture supernatant was collected and processed in MagNA Pure 96 Nucleic Acid Purification System (Roche Applied Science) for viral DNA extraction. The extracted samples were subjected to HBV DNA quantification by qPCR. The effective compound concentration at which HBV replication is inhibited by 50% (EC50) was determined.
The Examples were tested in the above assays as described herein and found to have EC50<1 μM in HepG2.2.15 assay.
(In qPCR the cycle at which signal appears reflects the starting amount.)
A word on the EC50: it is the concentration that produces a half-maximal response. Consider `COC(=O)C1=C(CN2C3COCC2CC(O)C3)NC(c2nccs2)=N[C@H]1c1ccc(F)cc1Cl` (stereo partly drawn) [Example 9, (R)-4-(2-Chloro-4-fluoro-phenyl)-6-(7-hydroxy-3-oxa-9-aza-bicyclo[3.3.1]non-9-ylmethyl)-2-thiazol-2-yl-1,4-dihydro-pyrimidine-5-carboxylic acid methyl ester], for which the EC50 came to 14 nM.

The assay is the same for the next values; noted with them: Hepatitis B virus, HepG2.2.15, Anti-HBV activity in HepG2.2.15 cells; read-out: EC50.
On to `COC(=O)C1=C(CN2C3COCC2c2c(C)n[nH]c2C3)NC(c2nccs2)=N[C@H]1c1ccc(F)cc1Cl` (stereo partly drawn) [Example 32, (R)-4-(2-Chloro-4-fluoro-phenyl)-6-(3-methyl-10-oxa-4,5,12-triaza-tricyclo[6.3.1.0*2,6*]dodeca-2(6),3-dien-12-ylmethyl)-2-thiazol-2-yl-1,4-dihydro-pyrimidine-5-carboxylic acid methyl ester], for which the EC50 was 32 nM. `COC(=O)C1=C(CN2C3CC(F)(F)C2C[C@@H]3C(=O)O)NC(c2nccs2)=N[C@H]1c1ccc(F)cc1Cl` (stereo partly drawn) [Example 151, (5S)-7-[[(4R)-4-(2-chloro-4-fluoro-phenyl)-5-methoxycarbonyl-2-thiazol-2-yl-1,4-dihydropyrimidin-6-yl]methyl]-2,2-difluoro-7-azabicyclo[2.2.1]heptane-5-carboxylic acid]: the EC50 was found to be 29.5 nM. On to `COC(=O)C1=C(CN2C3COCC2CC(CC(=O)O)C3)NC(c2nccs2)=NC1c1ccc(F)c(F)c1` (stereo not drawn) [Example 27, 6-(7-Carboxymethyl-3-oxa-9-aza-bicyclo[3.3.1]non-9-ylmethyl)-4-(3,4-difluoro-phenyl)-2-thiazol-2-yl-1,4-dihydro-pyrimidine-5-carboxylic acid methyl ester], for which the EC50 worked out at 254 nM. The same measure, in the same setting: the same measure for `COC(=O)C1=C(CN2C3COCC2C(F)C3)NC(c2nccs2)=N[C@H]1c1ccc(F)cc1Cl` (stereo partly drawn) [Example 51, Methyl (4R)-4-(2-chloro-4-fluoro-phenyl)-6-[(6-fluoro-3-oxa-8-azabicyclo[3.2.1]octan-8-yl)methyl]-2-thiazol-2-yl-1,4-dihydropyrimidine-5-carboxylate]: 14.9 nM; for `COC(=O)C1=C(CN2C3CNC(=O)C2COC3)NC(c2nccs2)=N[C@H]1c1ccc(F)cc1Cl` (stereo partly drawn) [Example 133, Methyl (4R)-4-(2-chloro-4-fluoro-phenyl)-6-[(6-oxo-3-oxa-7,9-diazabicyclo[3.3.1]nonan-9-yl)methyl]-2-thiazol-2-yl-1,4-dihydropyrimidine-5-carboxylate]: 34 nM. With `COC(=O)C1=C(CN2[C@@H]3COC[C@H]2CC(OCC(=O)O)C3)NC(c2nccs2)=N[C@H]1c1ccc(F)c(F)c1` (stereo partly drawn) [Example 47, 2-[[(1R,5S)-9-[[(4S)-4-(3,4-difluorophenyl)-5-methoxycarbonyl-2-thiazol-2-yl-1,4-dihydropyrimidin-6-yl]methyl]-3-oxa-9-azabicyclo[3.3.1]nonan-7-yl]oxy]acetic acid], the EC50 is 295 nM. On to `COC(=O)C1=C(CN2C3COCC2CC(C(O)C(=O)OC)C3)NC(c2nccs2)=N[C@H]1c1ccc(F)cc1Cl` (stereo partly drawn) [Example 30, (R)-4-(2-Chloro-4-fluoro-phenyl)-6-[7-(hydroxy-methoxycarbonyl-methyl)-3-oxa-9-aza-bicyclo[3.3.1]non-9-ylmethyl]-2-thiazol-2-yl-1,4-dihydro-pyrimidine-5-carboxylic acid methyl ester], for which the EC50 is 11 nM. Consider `CCOC(=O)C(C)(C)N1CC2COCC(C1)N2CC1=C(C(=O)OC)[C@H](c2ccc(F)cc2Cl)N=C(c2nccs2)N1` [Example 20, (R)-4-(2-Chloro-4-fluoro-phenyl)-6-[7-(1-ethoxycarbonyl-1-methyl-ethyl)-3-oxa-7,9-diaza-bicyclo[3.3.1]non-9-ylmethyl]-2-thiazol-2-yl-1,4-dihydro-pyrimidine-5-carboxylic acid methyl ester], for which the EC50 came out at 35 nM. `COC(=O)C1=C(CN2CC3CCC(C2)O3)NC(c2nccs2)=N[C@H]1c1ccc(F)cc1Cl` [Example 142, Methyl (4R)-4-(2-chloro-4-fluoro-phenyl)-6-(8-oxa-3-azabicyclo[3.2.1]octan-3-ylmethyl)-2-thiazol-2-yl-1,4-dihydropyrimidine-5-carboxylate]: the EC50 was found to be 130 nM.

In the case of `COC(=O)C1=C(CN2[C@H]3C[C@H](CC(=O)O)C[C@@H]2C(F)(F)C3)NC(c2nccs2)=N[C@H]1c1ccc(F)c(F)c1C` [Example 112, 2-[(1S,3S,5R)-8-[[(4S)-4-(3,4-difluoro-2-methyl-phenyl)-5-methoxycarbonyl-2-thiazol-2-yl-1,4-dihydropyrimidin-6-yl]methyl]-6,6-difluoro-8-azabicyclo[3.2.1]octan-3-yl]acetic acid], the EC50 came to 35.8 nM.

In the case of `COC(=O)C1=C(CN2C3CC(F)(F)C2C[C@](O)(CC(=O)O)C3)NC(c2nccs2)=N[C@H]1c1ccc(F)c(F)c1C` (stereo partly drawn) [Example 119, 2-[(3S)-8-[[(4S)-4-(3,4-difluoro-2-methyl-phenyl)-5-methoxycarbonyl-2-thiazol-2-yl-1,4-dihydropyrimidin-6-yl]methyl]-6,6-difluoro-3-hydroxy-8-azabicyclo[3.2.1]octan-3-yl]acetic acid], the EC50 worked out at 21.3 nM. `CCOC(=O)C1=C(CN2C3COCC2CC(N)(C(=O)O)C3)NC(c2nccs2)=N[C@H]1c1ccc(F)cc1Br` (stereo partly drawn) [Example 141, 7-amino-9-[[(4R)-4-(2-bromo-4-fluoro-phenyl)-5-ethoxycarbonyl-2-thiazol-2-yl-1,4-dihydropyrimidin-6-yl]methyl]-3-oxa-9-azabicyclo[3.3.1]nonane-7-carboxylic acid]: the EC50 worked out at 271 nM. In the case of `CCOC(=O)C1=C(CN2C3COCC2CC(N)(C(=O)O)C3)NC(c2nccs2)=N[C@H]1c1cccc(F)c1F` (stereo partly drawn) [Example 140, 7-amino-9-[[(4R)-4-(2,3-difluorophenyl)-5-ethoxycarbonyl-2-thiazol-2-yl-1,4-dihydropyrimidin-6-yl]methyl]-3-oxa-9-azabicyclo[3.3.1]nonane-7-carboxylic acid], the concentration giving a half-maximal response (EC50) was determined as 103 nM. `CCOC(=O)CC1(O)CC2COCC(C1O)N2CC1=C(C(=O)OC)[C@H](c2ccc(F)cc2Cl)N=C(c2nccs2)N1` (stereo partly drawn) [Example 138, Methyl (4R)-4-(2-chloro-4-fluoro-phenyl)-6-[[7-(2-ethoxy-2-oxo-ethyl)-6,7-dihydroxy-3-oxa-9-azabicyclo[3.3.1]nonan-9-yl]methyl]-2-thiazol-2-yl-1,4-dihydropyrimidine-5-carboxylate]: the half-maximal effective concentration (EC50) was found to be 58.2 nM.

Consider `COC(=O)C1=C(CN2C3CC(F)(F)C2C[C@](O)(CC(=O)O)C3)NC(c2nccs2)=N[C@H]1c1cccc(F)c1Cl` (stereo partly drawn) [Example 121, 2-[(3S)-8-[[(4R)-4-(2-chloro-3-fluoro-phenyl)-5-methoxycarbonyl-2-thiazol-2-yl-1,4-dihydropyrimidin-6-yl]methyl]-6,6-difluoro-3-hydroxy-8-azabicyclo[3.2.1]octan-3-yl]acetic acid], for which the EC50 worked out at 33 nM.

Turning to `COC(=O)C1=C(CN2C3COCC2C(F)c2oncc23)NC(c2nccs2)=N[C@H]1c1ccc(F)cc1Cl` (stereo partly drawn) [Example 106, (4R)-4-(2-Chloro-4-fluoro-phenyl)-6-(7-fluoro-5,10-dioxa-4,12-diaza-tricyclo[6.3.1.0*2,6*]dodeca-2(6),3-dien-12-ylmethyl)-2-thiazol-2-yl-1,4-dihydropyrimidine-5-carrboxylic acid methyl ester], the EC50 stood at 8.5 nM. On to `CNS(=O)(=O)N1CC2COCC(C1)N2CC1=C(C(=O)OC)[C@H](c2ccc(F)cc2Cl)N=C(c2nccs2)N1` [Example 16, (R)-4-(2-Chloro-4-fluoro-phenyl)-6-(7-methylsulfamoyl-3-oxa-7,9-diaza-bicyclo[3.3.1]non-9-ylmethyl)-2-thiazol-2-yl-1,4-dihydro-pyrimidine-5-carboxylic acid methyl ester], for which the EC50 was 15 nM. On the same count and under the same terms, the same measure for `COC(=O)C1=C(CN2C3COCC2C(O)C3)NC(c2nccs2)=N[C@H]1c1ccc(F)cc1Cl` (mixture of isomers) [Example 49, Methyl (4R)-4-(2-chloro-4-fluoro-phenyl)-6-[(6-hydroxy-3-oxa-8-azabicyclo[3.2.1]octan-8-yl)methyl]-2-thiazol-2-yl-1,4-dihydropyrimidine-5-carboxylate]: 17.2 nM; for `COC(=O)C1=C(CN2CC3CC2CC3(F)F)NC(c2nccs2)=N[C@H]1c1ccc(F)cc1Cl` (stereo partly drawn) [Example 143, Methyl (4R)-4-(2-chloro-4-fluoro-phenyl)-6-[(5,5-difluoro-2-azabicyclo[2.2.1]heptan-2-yl)methyl]-2-thiazol-2-yl-1,4-dihydropyrimidine-5-carboxylate]: 41 nM; for `COC(=O)C1=C(CN2C3COCC2CC(C(=O)OC)C3)NC(c2nccs2)=N[C@H]1c1ccc(F)cc1Br` (stereo partly drawn) [Example 4, 9-[(R)-6-(2-Bromo-4-fluoro-phenyl)-5-methoxycarbonyl-2-thiazol-2-yl-3,6-dihydro-pyrimidin-4-ylmethyl]-3-oxa-9-aza-bicyclo[3.3.1]nonane-7-carboxylic acid methyl ester]: 39 nM.
